Data as given in patent publication US20190192521A1, “Methods of Treating Arid1A-Mutated Cancers With HDAC6 Inhibitors and EZH2 Inhibitors” (The Wistar Institute of Anatomy and Biology, priority 2016, published 2019).

Key:
[1] = test system: ARID1A wild-type RMG1 tumors; test: intrabursal orthotopic xenograft, ARID1A wild-type RMG1; assay type: in vivo, mice
Description: The consecutive sections of tumors dissected from the indicated treatment groups were subjected to immunohistochemical staining for HDAC6, Ki67, cleaved caspase 3 and p53K120AC. Scale bar=100 μm.
Histological score (H-score) was calculated for 5 separate fields from 6 tumors from 6 individual mice from each of the indicated groups. Error bars represent S.E.M. The p-values were calculated via two-tailed t-test.
Immunofluorescence and immunohistochemical staining was performed as follows. Immunofluorescence was performed after 48 hours as indicated by fixing samples in 4% paraformaldehyde and permeabilizing with 0.5% Triton-X. Samples were incubated with primary antibodies for 2 hours at room temperature, highly cross absorbed secondary antibodies (Invitrogen) for 1 hour at room temperature and mounted with prolong anti-fade reagent (Invitrogen). […] Expression of the stained markers was scored using a histologic score (H score) as previously described. […]
The intrabursal orthotopic xenograft in vivo model was performed as described previously (Bitler et al. Nat. Med. 2015, 21, 231-238; Bitler et al. Cancer Research 2011, 71, 6184-6194). […] Images were analyzed using Live Imaging 4.0 software. At end of the experiments, tumors were surgically dissected and tumor burden was calculated based on tumor weight. Intraperitoneally disseminated tumor nodules were quantified.

[2] = test system: cells with BRG1 knockdown; test: ACY1215 sensitivity after knockdown of SWI/SNF subunit BRG1; assay type: cell-based
Description: Retrovirus production and transduction were performed as described in Aird et al. Cell Reports 2013, 3, 1252-1265, and Bitler et al. Nat. Med. 2015, 21, 231-238. Phoenix cells were used to package the viruses. Lentivirus was packaged using the Virapower Kit from Life Technologies (Carlsbad, Calif.) following the manufacturer's instructions, and as described Aird et al. Cell Reports 2013, 3, 1252-1265, and Bitler et al. Nat. Med. 2015, 21, 231-238. pLKO.1-shARID1As (TRCN0000059090), pLKO.1-shp53 (TRCN0000010814 and TRCN0000003755), pLKO.1-shHDAC6 (TRCN0000004839 and TRCN0000004841), pLKO.1-shCaspase 3 (TRCN0000003550), shCaspase 9 (TRCN0000003583), shCaspase 8 (TRCN0000003577 and TRCN0000003579)and shBRG1 (TRCN0000015549 and TRCN0000015552) were obtained from Open Biosystems. A shRNA to luciferase was used as a control. […] Cells infected with viruses encoding the puromycin resistance gene were selected in 1 μg/ml puromycin.

[3] = test system: p53K120Ac in ARID1A-mutated TOV21G cells; test: mitochondrial localization of p53K120Ac (immunofluorescence, cellular fractionation); assay type: cell-based, human; settings: 1.25 μM
Source text: FIG. 42 illustrates that apoptosis induced by HDAC6 inhibition in ARD1A-mutated cells correlates with mitochondrial localization of p53K120Ac and a decrease in mitochondrial membrane potential. […] Images were captured using confocal microscopy.
Mean of three independent experiments with S.E.M.
Expression of p53K120Ac, mitochondrial marker TOM20, and total p53 in the indicated fractions was examined by immunoblot. GAPDH expression was used as a loading control.
Immunofluorescence and immunohistochemical staining was performed as follows. Immunofluorescence was performed after 48 hours as indicated by fixing samples in 4% paraformaldehyde and permeabilizing with 0.5% Triton-X. Samples were incubated with primary antibodies for 2 hours at room temperature, highly cross absorbed secondary antibodies (Invitrogen) for 1 hour at room temperature and mounted with prolong anti-fade reagent (Invitrogen). Immuno-stained cells were imaged using a Leica Confocal microscope. […] Bitler et al. Nat. Med. 2015, 21, 231-238; Bitler et al. Cancer Research 2011, 71, 6184-6194. Expression of the stained markers was scored using a histologic score (H score) as previously described. McCarty, Jr. et al. Cancer research 1986, 46, 4244s-4248s.
Mitochondria were isolated using the Mitochondria Isolation Kit (Thermo Fisher Scientific). […]

[4] = test system: p53 acetylation (lysine 120, 373, 382) in ARID1A-mutated TOV21G cells; test: immunoblot of p53 acetylation, TOV21G; assay type: cell-based, human; settings: 1.25 μM
Description: Expression of the indicated proteins was determined by immunoblot. GAPDH expression was used as a loading control.
For immunoblotting, protein was isolated as described in Bitler et al. Nat. Med. 2015, 21, 231-238. Briefly, protein was extracted with RIPA buffer (150 mM NaCl, 1% NP40, 0.5% sodium deoxycholate, 0.1% SDS, 50 mM Tris pH 8.0, and 1 mM PMSF). Protein was separated on a SDS-PAGE and transferred to PVDF membrane. For immunoblot of p53 post-translation modifications, cells were treated with a proteasome inhibitor MG132 (10 μM) to stabilize p53 protein.

[5] = test system: Arid1a−/−/Pik3caH1047R clear cell ovarian tumours; test: Arid1a−/−/Pik3caH1047R genetic clear cell ovarian tumour mouse model; assay type: in vivo, mice; settings: 50 mg/kg, 21 days
Source text: Arid1a−/−/Pik3caH1047R genetic clear cell ovarian tumour mouse model. All experiments were approved by IACUC. Transgenic mice with latent mutations in Arid1a and Pik3ca were generated by crossing Arid1aflox/floxmice (kindly provided by Dr. Wang, U. Michigan and crossed onto a C57BL/6J background for 9 generations) with R26-Pik3caH1047R mice carrying inducible Pik3ca mutations (Jackson Laboratory, Jax #016977). Gao et al, 2008, Proc Natl Acad Sci USA 105, 6656-6661. Administration of intrabursal adeno-Cre, performed as previously reported, Scarlett et al. 2012, J Exp Med 209, 495-506, induce ovarian clear cell carcinoma in ˜45 days, which is similar to a previous report. All mice were maintained in specific pathogen-free barrier facilities. To induce tumorigenesis, 6-10 weeks old Pik3caH1047R/Arid1aflox/flox female mice were intrabursally injected adenovirus-Cre as previously described. Mice were randomized and treated with ACY1215 (50 mg/kg) or vehicle control for 21 days as previously published. Following treatment mice were sacrificed and the reproductive tracts were removed. The changes in volumes of tumours formed on the injected ovary were calculated against the contrary side non-injected ovary from the same mice.

## O=C(CCCCCCNC(=O)c1cnc(N(c2ccccc2)c2ccccc2)nc1)NO [rocilinostat, 2-(diphenylamino)-N-(7-(hydroxyamino)-7-oxoheptyl)pyrimidine-5-carboxamide]
[1]; 50 mg/kg daily, 3 weeks
  growth, tumor burden, dissemination of ARID1A wild-type tumors: did not significantly affect the growth, tumor burden or dissemination
[1]; ARID1A wild-type tumors
  expression of Ki67, cleaved caspase 3, p53K120Ac (IHC): did not affect the expression of Ki67, cleaved caspase 3, or p53K120Ac
[2]
  effect of BRG1 knockdown on sensitivity: did not increase
[3]; cellular fractionation
  p53K120Ac in the mitochondrial fraction: increase in p53K120Ac in the mitochondrial fraction
[3]; immunofluorescence
  co-localization of p53K120Ac and mitochondrial marker TOM20: significant increase in co-localization
[4]
  acetylation status of lysine 373 or 382 residue of p53: unchanged
  p53K120Ac level: upregulated
[5]
  tumour growth: significantly suppressed the tumour growth
